Results: paper PMC9855386, “Obtaining a Monoclonal Antibody against a Novel Prometryn-Like Hapten and Characterization of Its Selectivity for Triazine Herbicides” (Biosensors, 2022)

Test system: 7D4 mAb (mouse monoclonal anti-prometryn antibody)
Test: ic-ELISA cross-reactivity of the 7D4 mAb with triazines
Format: binding
Details: for IC50: ic-ELISA, analyte 1000-15.625 and 0 ng/mL; for Cross-Reactivity: relative to prometryn = 100%
Procedure: The ic-ELISA method was used to screen the best-performing fusion mouse sera. They were used to establish the standard curve of antibodies by detecting the supernatant of positive cells. The buffer required for ic-ELISA was the same as previously reported. The specific steps of the operation are as follows: (1) The coated antigen was added to the microplate by diluting it with the required coating solutions (CBS, pH 9.6, 0.05 mol/L). Each well contained 100 µL, which was incubated at 37 °C for three h before being washed three times with washing buffer (PBST, PBS containing 0.1% Tween-20). (2) With sample dilution buffer (PBSTG, PBST containing 0.1% gelatin), the standard prometryn sample and the antiserum/antibody from mice were diluted to the required concentration. The microplate was incubated for 30 min at 37 °C with 50 µL of diluted antiserum or antibody and standard samples of various concentrations. PBST was used three times to wash the dishes. (3) Then, 100 µL of PBSTG-diluent IgG HRP (labeled goat anti-mouse IgG with HRP) was added to each well. After 30 min at 37 °C, the plate was cleaned three times with PBST. (4) Each well was incubated for 15 min in the dark at 25 °C with 100 µL of TMB color developing solution. To stop the reaction, 50 µL of the hydrochloric acid solution was added to each well. The absorbance at OD450 nm was measured with a TECAN Infinite M200 PRO microplate reader from Männedorf, Switzerland.
The ic-ELISA method was used to determine the ideal antibody and antigen mix. The coating antigen and antibody concentration used in the experiment was 1 mg/mL. The dilution multiples of the coating were 1 × 10^3, 2 × 10^3, 4 × 10^3, and 8 × 10^3. The prometryn standard was 1000 ng/mL. The best concentration combination of antigen and antibody was selected to establish the standard curve of the antibody. Prometryn standards were diluted to 1000, 500, 250, 125, 62.5, 31.25, 15.625, 7.8125, 3.90625, and 0 ng/mL, with PBSTG for subsequent ic-ELISA experiments. The standard curve was determined by ic-ELISA. […] Each measured OD value in the curve is the average of three independent repeats. The 7D4 mAb’s inhibition rate was well linearly correlated with the prometryn concentration. […] The 7D4 mAb type was identified as IgG1 using a mouse antibody isotyping kit from Sigma®, St. Louis, MO, USA.
Eleven triazine herbicides were selected to determine their cross-reactivity with 7D4 mAb. […] The cross-reaction rate with the other seven triazines was less than 1%. The hybridoma cell line 7D4 screened in this study can specifically recognize prometryn. […] The cross-reaction rate may vary depending on the immunoassay format and the competitive hapten preparation used.

Structure (SMILES): CCNc1nc(Cl)nc(NC(C)C)n1 [Atrazine]
- IC50: >1 µg/mL
- Cross-Reactivity: <0.39%

Structure (SMILES): CCNc1nc(Cl)nc(NCC)n1 [Simazine]
- IC50: >1 µg/mL
- Cross-Reactivity: <0.39%

Structure (SMILES): CCNc1nc(Cl)nc(NC(C)(C)C)n1 [Terbuthylazine]
- IC50: >1 µg/mL
- Cross-Reactivity: <0.39%

Structure (SMILES): CCNc1nc(NC(C)(C)C)nc(SC)n1 [Terbutryn]
- IC50: >1 µg/mL
- Cross-Reactivity: <0.39%

Structure (SMILES): COc1nc(NC(C)C)nc(NC(C)C)n1 [Prometon]
- IC50: >1 µg/mL
- Cross-Reactivity: <0.39%

Structure (SMILES): CCNc1nc(NC(C)(C)C)nc(OC)n1 [Terbumeton]
- IC50: 0.051091 µg/mL
- Cross-Reactivity: 7.64%
- Cross-Reactivity (listed as terbumeton): 7.64%

Structure (SMILES): CCNc1nc(NC(C)C)nc(SC)n1 [Ametryn]
- IC50: 0.011221 µg/mL
- Cross-Reactivity: 34.77%
- Cross-Reactivity (listed as ametryn): 34.77%

Structure (SMILES): CCNc1nc(NCC)nc(SC)n1 [Simetryn]
- IC50: >1 µg/mL
- Cross-Reactivity: <0.39%

Structure (SMILES): CC(C)Nc1nc(Cl)nc(NC(C)C)n1 [Propazine]
- IC50: 0.398011 µg/mL
- Cross-Reactivity: 0.98%

Structure (SMILES): CNc1nc(NC(C)C)nc(SC)n1 [Desmetryn]
- IC50: 0.021566 µg/mL
- Cross-Reactivity: 18.09%
- Cross-Reactivity (listed as desmetryn): 18.09%
